In patent publication US20220395500A1, “SMALL MOLECULE ACTIVATORS OF INTERFERON REGULATORY FACTOR 3 AND METHODS OF USE THEREOF” (Neuralexo, Inc., priority 2020, published 2022):
Read-outs that look alike come from different tables or passages of the source.

Tests used:
[1] = THP1-Dual cytotoxicity (Cell Titer Glo, ATP); type: cell-based, human; conditions: human, THP1-Dual cells, read-out: Thp1 cytotox CC50
Text: FIG. 9C is a CC50 (50% cytotoxic concentration) graph of AV-C dependent IRF activation in THP1-Dual cells, determined with an 8-point dose response experiment. Cell viability was monitored based on quantitation of ATP present, as an indicator of metabolically active cells, where luminescence is proportional to the amount of ATP present, using Cell-Titer Glo (Promega).
The OTRADI Small Molecule Library of approximately 246,000 diverse compounds (see below for description) was screened using the THP1-Dual based HTS platform described above. All transfer steps in the screen are fully automated, thus reducing variability. Primary screening included a single data point or dose for each molecule. After data normalization was applied for each assay run, “hit” selection was performed on the plates that pass the quality control (QC) criterion. Hits were defined as samples having values above the activity cutoff determined based on noise level of the assay to reduce false positive rates. In the pilot study discussed above this activity value was >3σ above the ISRE mean with the added criteria of NFκB activation being lower than […] from the mean to identify IRF selective compounds. The ratio of ISRE:NFκB activity was also calculated as a selectivity index for prioritizing hit selection. Primary hits underwent secondary screening to determine the 50% effective concentration (EC50) and 50% cytotoxic concentration (CC50) of these agents using an 8-point dose-response curve in the human THP1-Dual cells. Cytotoxicity was measured in the plate using Cell Titer Glo (Promega). Identified candidate compounds were further screened (orthogonal screen) for cross species activity in the validated mouse J774-Dual assay using an 8-point dose-response format to determine EC50 and CC50 values as well as ISRE:NFκB ratios. A general process flow for the experimental design laid out above is depicted at FIG. 12.

J774-Dual cytotoxicity = type: cell-based, mouse; conditions: mouse, J774-Dual cells, read-out: J774 cytotox CC50
Procedure: The OTRADI Small Molecule Library of approximately 246,000 diverse compounds (see below for description) was screened using the THP1-Dual based HTS platform described above. All transfer steps in the screen are fully automated, thus reducing variability. Primary screening included a single data point or dose for each molecule. After data normalization was applied for each assay run, “hit” selection was performed on the plates that pass the quality control (QC) criterion. Hits were defined as samples having values above the activity cutoff determined based on noise level of the assay to reduce false positive rates. […] The ratio of ISRE:NFκB activity was also calculated as a selectivity index for prioritizing hit selection. Primary hits underwent secondary screening to determine the 50% effective concentration (EC50) and 50% cytotoxic concentration (CC50) of these agents using an 8-point dose-response curve in the human THP1-Dual cells. Cytotoxicity was measured in the plate using Cell Titer Glo (Promega). Identified candidate compounds were further screened (orthogonal screen) for cross species activity in the validated mouse J774-Dual assay using an 8-point dose-response format to determine EC50 and CC50 values as well as ISRE:NFκB ratios. A general process flow for the experimental design laid out above is depicted at FIG. 12.

[2] = system: IRF-Lucia luciferase reporter (ISRE) in THP1-Dual cells; assay: THP1-Dual IRF-Lucia luciferase reporter assay (ISRE activation); type: cell-based, human; conditions: for EC50: Homo sapiens, THP1-Dual, read-out: THP1 IRF EC50; for Average ISRE/NFκB (Range) / Average ISRE % Activation: human THP1 pilot screen, 10 μM, 3 screens; for Average ISRE % Activation: 24 hours, percent of LPS activation signal +/− SD
Procedure: THP1 Dual (InvivoGen) cell suspensions were cultured in RPMI 1640 (Hyclone, Logan, Utah) supplemented with 10% fetal bovine serum (Hyclone), 100 U/mL Normocin (Invivogen), and 50 U/mL PenStrep (Gibco, Dublin, Ireland) between a density of 7·10^5-2·10^6 cells/mL. Every other passage, media was supplemented with 5 U/mL Blasticidin and 100 U/mL Zeocin to maintain the expression constructs. White, flat-bottom 384-well plates (Greiner, Kremsmunster, Austria, 781080) were seeded with 2.5·10^4 cells/well in a total of 50 μL media containing 5 ng/mL phorbolmyristic acid (PMA) using a Matrix WellMate (Thermo Scientific) dispenser. After 48 hours of incubation at 37° C., media was removed using a BioTek ELx405 CW plate washer set to aspirate and wash each well three times with 65 μL 1×PBS. Plates were reloaded with 50 μL media without PMA and treatments added. Lipopolysaccharide in dimethylsulfoxide (DMSO) was transferred to control wells using a HP D300 microdispenser to a final concentration of 313 ng/mL. Compounds from chemical library plates were copied using a Sciclone (Caliper LifeSciences) mounted with a 384-pin transfer tool to obtain a final concentration of 10 μM. After incubation with treatments for 24 hours, 10 μL of supernatant media from each well was transferred into a white, flat-bottom 384-well plate for luminescence readout and a black-walled, clear flat-bottom 384-well plate for absorbance readout.
Specifically, to enable screening of novel chemical entities (NCEs) in a larger screening effort, a robust high-throughput cell-based assay system for primary hit identification of ISRE activators based on the above-mentioned target validation was desired. Human ISRE activity was verified using a THP-1 monocyte line containing the NF-κB-SEAP and IRF-Lucia luciferase dual reporter (THP1-Dual; Invivogen) that features two reporter genes, SEAP (secreted embryonic alkaline phosphatase) and Lucia luciferase, thereby enabling the simultaneous study of the NF-κB and IRF signalling pathways. The Lucia luciferase reporter is under the control of an ISG54 (interferon-stimulated gene) minimal promoter in conjunction with five IFN-stimulated response elements. The SEAP gene is driven by an IFN-β minimal promoter fused to five copies of the NF-κB consensus transcriptional response element and three copies of the c-Rel binding site. Both reporter proteins are readily measurable in the cell culture supernatant when using QUANTI-LUC™ and QUANTI-Blue SEAP detection reagents.
The responsiveness of the human THP-1 Dual cell line was evaluated in an array of assay conditions to obtain sensitive and reproducible results for the activation of IRF and NF-κB reporters. […] All transfer steps are fully automated using high throughput robotic equipment. Briefly, cells are seeded in differentiation medium using a Matrix WellMate fitted with the WellMate Stacker (Thermo Scientific) and incubated at 37° C. with 5% CO2 for 48 h. Following differentiation, cells are washed using a BioTek ELx405 Select CW plate washer and growth medium added with the Matrix WellMate. Programmed control treatments are added to wells using a D300 digital dispenser fitted with T8+ dispense heads (Hewlett Packard) designed to dispense nanoliter quantities of material. Compounds from library plates are added using a pin tool fitted to a Sciclone ALH 3000 Workstation (Caliper Life Sciences) programmed with Maestro v4.4. After treatment, plates are returned to incubators for 24 hours. To measure reporter expression, supernatant is collected using the Sciclone and dispensed into 2 plates: 1) a white 384-well assay plate for Lucia luminescence measurements and 2) a clear-bottom black 384-well assay plate for SEAP absorbance measurements.

[3] = Human Reporter Cell Line, 8-point dose response

Row | Molecule | CC50 ([1]; Human Reporter Cell Line THP1) | CC50 (J774-Dual cytotoxicity; Mouse Reporter Cell Line J774) | further results
1 | CC(C)c1ccc(C(=O)Nc2ccc(N3CCN(C(=O)c4ccco4)CC3)cc2)cc1 [NA-4] | – | – | CC50 ([1]; Human Reporter Cell Line): 37.8 µM; CC50 (J774-Dual cytotoxicity; Mouse Reporter Cell Line): > 25 µM; EC50 [2, 3]: ~13.2 µM
2 | O=C(Nc1ccc(N2CCN(C(=O)c3cccs3)CC2)cc1)c1ccc2cc(Br)ccc2c1 [NA-17] | – | – | CC50 ([1]; Human Reporter Cell Line): 14.6 µM; CC50 (J774-Dual cytotoxicity; Mouse Reporter Cell Line): > 25 µM; EC50 [2, 3]: 2.4 µM
3 | O=C(Nc1ccc(N2CCN(C(=O)c3cccs3)CC2)cc1)c1ccc(Br)c2ncccc12 [NA-18] | – | – | CC50 ([1]; Human Reporter Cell Line): > 25 µM; CC50 (J774-Dual cytotoxicity; Mouse Reporter Cell Line): > 25 µM; EC50 [2, 3]: 3.08 µM
4 | O=C(Nc1ccc(N2CCN(C(=O)c3cccs3)CC2)cc1)c1cc(Cl)ccc1Cl [NA-43] | – | – | CC50 ([1]; Human Reporter Cell Line): > 25 µM; CC50 (J774-Dual cytotoxicity; Mouse Reporter Cell Line): > 25 µM; EC50 [2, 3]: ~10.8 µM
5 | COc1ccc(C(=O)Nc2ccc(N3CCN(C(=O)c4cccs4)CC3)cc2)cc1[N+](=O)[O-] [NA-46] | – | – | CC50 ([1]; Human Reporter Cell Line): > 25 µM; CC50 (J774-Dual cytotoxicity; Mouse Reporter Cell Line): > 25 µM; EC50 [2, 3]: 0.109 µM
6 | COC(=O)c1ccc(N2CCN(C(=O)c3cccs3)CC2)cc1 [NA-47] | – | – | CC50 ([1]; Human Reporter Cell Line): > 25 µM; CC50 (J774-Dual cytotoxicity; Mouse Reporter Cell Line): > 25 µM; EC50 [2, 3]: 0.358 µM
7 | O=C(Nc1ccc(N2CCN(C(=O)c3ccccc3)CC2)cc1)c1ccc(OCc2ccccc2)cc1 [NA-51] | – | – | CC50 ([1]; Human Reporter Cell Line): 11.3 µM; CC50 (J774-Dual cytotoxicity; Mouse Reporter Cell Line): > 25 µM; EC50 [2, 3]: ~2.63 µM
8 | Cc1ccccc1C(=O)N1CCN(c2ccc(NC(=O)c3ccc(OCc4ccccc4)cc3)cc2)CC1 [NA-52] | – | – | CC50 ([1]; Human Reporter Cell Line): > 25 µM; CC50 (J774-Dual cytotoxicity; Mouse Reporter Cell Line): > 25 µM; EC50 [2, 3]: 1.42 µM
9 | O=C(Nc1ccc(N2CCN(C(=O)c3cccs3)CC2)cc1)c1ccc(OCc2cccnc2)cc1 [NA-61] | – | – | EC50 [2, 3]: 2.27 µM
10 | COc1ccc(C(=O)Nc2nc(-c3cc4ccccc4oc3=O)co2)c2ccccc12 [ND-18] | – | – | EC50 ([2]; Human Reporter Cell Line THP1): 13.5 µM
11 | O=C(Nc1nc(-c2cc3ccccc3oc2=O)cs1)c1ccc(OCc2ccccc2)cc1 [ND-22] | 9.79 µM | – | EC50 ([2]; Human Reporter Cell Line THP1): 3.83 µM
12 | Cc1ccc(-c2nc3cc(C(C)C)ccc3o2)cc1[N+](=O)[O-] [ND-57] | > 25 µM | > 25 µM | –
13 | Cc1cc2nc(-c3ccc(C)c(N)c3)oc2cc1C [ND-59] | > 25 µM | > 25 µM | –
14 | CCOC(=O)C1=CCCC[C@H]1S(=O)(=O)Nc1ccc(F)cc1Cl [ND-72] | > 25 µM | > 25 µM | –
15 | ClCCCOc1ccc(-c2nc3ccc(OCCCCl)cc3o2)cc1 [ND-73] | > 25 µM | > 25 µM | –
16 | Cc1cc2nc(-c3ccc(C)c(NC(=O)c4ccc(C(F)(F)F)c([N+](=O)[O-])c4)c3)oc2cc1C [ND-75] | > 25 µM | > 25 µM | –

Row | Molecule | CC50 ([1]; Human Reporter Cell Line THP1) | CC50 (J774-Dual cytotoxicity; Mouse Reporter Cell Line J774) | further results
17 | CC1=NN(c2ccccc2)C(=O)C1 [ND-77] | > 25 µM | > 25 µM | –
18 | COc1ccc(C(=O)Nc2ccc(OC)cc2OC)cc1 [ND-78] | > 25 µM | > 25 µM | –
19 | Cc1ccc(-c2nc3cc(OCCCN4CCCC4)ccc3o2)cc1[N+](=O)[O-] [ND-83] | > 25 µM | > 25 µM | –
20 | Cc1ccc(-c2nc3cc(O)ccc3o2)cc1[N+](=O)[O-] [ND-85] | > 25 µM | > 25 µM | –
21 | COc1ccc(C(=O)Nc2cc(-c3nc4ccccc4s3)ccc2C)cc1C(F)(F)F [ND-87] | 3.02 µM | > 25 µM | –
22 | COc1ccc(C(=O)Nc2cccc(-c3nc4ccccc4s3)c2C)cc1[N+](=O)[O-] [ND-90] | > 25 µM | > 25 µM | –
23 | CN(C)CCCOc1ccc(-c2nc3cc(OCCCN4CCCC4)ccc3o2)cc1 [ND-93] | > 25 µM | > 25 µM | –
24 | CC(C)CC(=O)c1c(C(C)C)nn2ccccc12 [ND-97] | > 25 µM | > 25 µM | –
25 | Cc1ccc(-c2nc3cc(Cl)ccc3o2)cc1NC(=O)/C=C/c1cccc([N+](=O)[O-])c1 [ND-99] | > 25 µM | > 25 µM | –
26 | O=c1cc(NC[C@H](O)[C@H](O)[C@H](O)CO)[nH]c(=O)[nH]1 [ND-100] | > 25 µM | > 25 µM | –
27 | COc1ccc(S(=O)(=O)Nc2cc(-c3nc4cc(C)c(C)cc4o3)ccc2C)cc1[N+](=O)[O-] [ND-107] | > 10 µM | > 10 µM | –
28 | Cc1cc2nc(-c3c[nH]c4ccccc34)oc2cc1C [ND-108] | > 10 µM | > 10 µM | –
29 | COC1=CC(=O)C(O)=C/C1=C\C=C\c1ccccc1 [OTR-0001624-001 (Obtusaquinone), Obtusaquinone, reference compound] | – | – | Average ISRE/NFκB (Range) [2]: 0.2 (0.2-0.3); Average ISRE % Activation [2]: 1.7 +/− 0.6%
30 | CCN(CC)CCCC(C)Nc1c2ccc(Cl)cc2nc2ccc(OC)cc12.Cl.Cl (stereo not shown) [Quinacrine Hydrochloride, reference compound] | – | – | Average ISRE/NFκB (Range) [2]: 1.4 (1.0-2.0); Average ISRE % Activation [2]: 5.7 +/− 2.9%
31 | Methapyrilene Hydrochloride [reference compound] | – | – | Average ISRE/NFκB (Range) [2]: 1.4 (0.4-2.3)
